Article PMC6199744, “Development of Chemical Proteomics for the Folateome and Analysis of the Kinetoplastid Folateome” (ACS Infectious Diseases, 2018)
Where two headings read alike, the source gives them in different places.

Legend:
Format in all cases: binding
[1] = molecular target: T1, HeLa cell extract proteins (Homo sapiens, UniProt Q7L1Q6)
T1 construct: endogenous in cells; host or cells: HeLa cell extract
T1 sequence (Q7L1Q6 1-419): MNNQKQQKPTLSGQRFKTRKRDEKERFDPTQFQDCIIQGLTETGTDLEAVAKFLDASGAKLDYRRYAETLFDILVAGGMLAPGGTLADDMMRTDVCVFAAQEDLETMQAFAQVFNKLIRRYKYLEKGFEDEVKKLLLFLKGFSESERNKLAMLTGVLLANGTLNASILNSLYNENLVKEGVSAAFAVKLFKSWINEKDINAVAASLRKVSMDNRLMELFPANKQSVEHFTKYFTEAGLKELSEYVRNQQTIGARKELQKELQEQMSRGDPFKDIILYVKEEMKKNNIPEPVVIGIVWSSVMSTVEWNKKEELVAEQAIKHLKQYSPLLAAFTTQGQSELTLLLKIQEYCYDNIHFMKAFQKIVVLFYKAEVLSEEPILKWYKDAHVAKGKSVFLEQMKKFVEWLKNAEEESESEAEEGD

[2] = molecular target: T2, HeLa cell extract proteins (Homo sapiens, UniProt P08238)
T2 construct: endogenous in cells; host or cells: HeLa cell extract
T2 sequence (P08238 whole entry): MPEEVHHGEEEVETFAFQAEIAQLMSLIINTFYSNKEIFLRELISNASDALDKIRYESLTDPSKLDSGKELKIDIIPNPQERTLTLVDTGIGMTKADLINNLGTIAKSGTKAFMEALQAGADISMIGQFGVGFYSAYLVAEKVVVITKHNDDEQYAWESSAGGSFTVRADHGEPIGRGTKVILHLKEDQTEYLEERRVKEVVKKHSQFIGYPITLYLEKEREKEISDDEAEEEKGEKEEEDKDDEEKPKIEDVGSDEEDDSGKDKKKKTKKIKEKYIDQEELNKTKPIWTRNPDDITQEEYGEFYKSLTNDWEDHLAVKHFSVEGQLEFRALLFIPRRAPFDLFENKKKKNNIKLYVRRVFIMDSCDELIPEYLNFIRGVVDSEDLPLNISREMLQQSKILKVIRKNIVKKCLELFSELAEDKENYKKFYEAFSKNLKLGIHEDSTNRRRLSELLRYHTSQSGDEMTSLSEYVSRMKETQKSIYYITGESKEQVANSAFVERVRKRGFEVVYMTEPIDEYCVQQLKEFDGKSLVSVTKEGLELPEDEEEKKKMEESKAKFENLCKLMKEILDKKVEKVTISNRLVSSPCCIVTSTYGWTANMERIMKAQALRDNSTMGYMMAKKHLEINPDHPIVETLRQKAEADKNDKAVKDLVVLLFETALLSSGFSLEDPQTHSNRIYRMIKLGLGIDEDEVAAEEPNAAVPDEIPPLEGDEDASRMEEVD

[3] = molecular target: T3, HeLa cell extract proteins (Homo sapiens, UniProt Q9NYU2)
T3 construct: endogenous in cells; host or cells: HeLa cell extract
T3 sequence (Q9NYU2 43-1555): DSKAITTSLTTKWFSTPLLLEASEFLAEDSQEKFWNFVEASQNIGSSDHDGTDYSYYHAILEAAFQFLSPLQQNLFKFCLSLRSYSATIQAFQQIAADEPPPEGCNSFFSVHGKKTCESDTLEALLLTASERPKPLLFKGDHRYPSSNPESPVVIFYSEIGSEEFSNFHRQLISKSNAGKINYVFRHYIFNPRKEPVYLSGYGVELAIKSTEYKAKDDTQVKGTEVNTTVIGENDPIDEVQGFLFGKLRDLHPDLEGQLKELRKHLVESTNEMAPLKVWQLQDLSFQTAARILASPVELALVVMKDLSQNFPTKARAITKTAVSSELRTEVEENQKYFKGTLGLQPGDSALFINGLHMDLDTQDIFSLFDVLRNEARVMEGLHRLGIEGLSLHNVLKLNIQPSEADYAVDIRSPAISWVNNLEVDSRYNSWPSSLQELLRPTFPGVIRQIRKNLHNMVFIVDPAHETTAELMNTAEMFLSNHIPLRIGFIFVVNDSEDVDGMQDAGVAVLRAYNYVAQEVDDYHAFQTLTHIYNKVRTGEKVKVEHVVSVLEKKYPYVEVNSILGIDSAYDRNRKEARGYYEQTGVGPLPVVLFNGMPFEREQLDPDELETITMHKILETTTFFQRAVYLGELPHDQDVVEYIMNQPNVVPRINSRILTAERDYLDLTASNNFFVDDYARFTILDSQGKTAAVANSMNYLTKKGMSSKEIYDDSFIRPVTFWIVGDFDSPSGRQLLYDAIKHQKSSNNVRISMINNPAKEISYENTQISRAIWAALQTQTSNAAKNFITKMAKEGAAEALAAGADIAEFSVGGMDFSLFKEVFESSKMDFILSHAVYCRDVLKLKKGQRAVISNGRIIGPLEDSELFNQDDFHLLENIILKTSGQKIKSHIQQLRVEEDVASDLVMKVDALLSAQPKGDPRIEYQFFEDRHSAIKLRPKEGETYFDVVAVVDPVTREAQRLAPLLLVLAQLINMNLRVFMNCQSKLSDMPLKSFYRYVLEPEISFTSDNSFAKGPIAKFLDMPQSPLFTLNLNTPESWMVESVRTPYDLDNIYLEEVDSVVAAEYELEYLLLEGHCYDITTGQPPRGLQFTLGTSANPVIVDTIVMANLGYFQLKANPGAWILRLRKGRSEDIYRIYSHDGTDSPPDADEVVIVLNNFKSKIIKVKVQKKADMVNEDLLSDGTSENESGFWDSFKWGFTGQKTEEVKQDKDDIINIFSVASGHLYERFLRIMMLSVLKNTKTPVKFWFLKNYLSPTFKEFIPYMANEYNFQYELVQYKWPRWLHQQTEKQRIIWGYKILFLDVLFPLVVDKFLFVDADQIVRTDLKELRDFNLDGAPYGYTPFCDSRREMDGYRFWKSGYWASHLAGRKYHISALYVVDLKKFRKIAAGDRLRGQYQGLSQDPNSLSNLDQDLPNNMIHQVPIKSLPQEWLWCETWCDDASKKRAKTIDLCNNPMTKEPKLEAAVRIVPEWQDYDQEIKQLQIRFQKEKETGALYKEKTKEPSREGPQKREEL

[4] = molecular target: T4, HeLa cell extract proteins (Homo sapiens, UniProt Q07021)
T4 construct: endogenous in cells; host or cells: HeLa cell extract
T4 sequence (Q07021 74-282): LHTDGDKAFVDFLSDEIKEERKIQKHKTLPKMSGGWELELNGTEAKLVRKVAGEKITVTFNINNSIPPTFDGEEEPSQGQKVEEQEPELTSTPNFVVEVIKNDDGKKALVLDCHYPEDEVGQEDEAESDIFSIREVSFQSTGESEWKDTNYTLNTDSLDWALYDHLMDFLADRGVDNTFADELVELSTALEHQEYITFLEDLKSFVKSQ

[5] = molecular target: T5, HeLa cell extract proteins (Homo sapiens, UniProt Q06830)
T5 construct: endogenous in cells; host or cells: HeLa cell extract
T5 sequence (Q06830 1-199): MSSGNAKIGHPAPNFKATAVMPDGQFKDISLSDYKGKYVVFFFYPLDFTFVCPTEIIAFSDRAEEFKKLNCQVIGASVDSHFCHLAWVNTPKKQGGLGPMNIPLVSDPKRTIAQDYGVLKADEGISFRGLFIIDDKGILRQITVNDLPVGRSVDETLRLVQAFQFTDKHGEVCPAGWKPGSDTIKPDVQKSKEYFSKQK

[6] = molecular target: T6, HeLa cell extract proteins (Homo sapiens, UniProt P13667)
T6 construct: endogenous in cells; host or cells: HeLa cell extract
T6 sequence (P13667 21-645): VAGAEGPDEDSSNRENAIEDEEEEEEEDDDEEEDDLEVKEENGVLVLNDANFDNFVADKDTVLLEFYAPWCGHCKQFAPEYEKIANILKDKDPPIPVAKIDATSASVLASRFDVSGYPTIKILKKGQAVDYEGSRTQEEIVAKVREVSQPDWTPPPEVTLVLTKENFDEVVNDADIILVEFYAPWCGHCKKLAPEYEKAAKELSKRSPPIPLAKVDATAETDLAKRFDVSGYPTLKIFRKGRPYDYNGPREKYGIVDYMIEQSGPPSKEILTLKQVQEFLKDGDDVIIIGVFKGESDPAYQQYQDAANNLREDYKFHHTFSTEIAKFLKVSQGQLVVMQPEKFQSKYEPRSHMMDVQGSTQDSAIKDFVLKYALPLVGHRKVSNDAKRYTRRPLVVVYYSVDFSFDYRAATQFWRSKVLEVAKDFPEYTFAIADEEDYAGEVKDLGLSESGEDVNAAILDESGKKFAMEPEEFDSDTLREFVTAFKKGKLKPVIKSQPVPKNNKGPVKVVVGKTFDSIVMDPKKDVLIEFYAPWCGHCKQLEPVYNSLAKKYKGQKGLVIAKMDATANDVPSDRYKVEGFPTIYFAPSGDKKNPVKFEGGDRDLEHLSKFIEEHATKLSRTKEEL

[7] = molecular target: T7, HeLa cell extract proteins (Homo sapiens, UniProt P29692)
T7 construct: endogenous in cells; host or cells: HeLa cell extract
T7 sequence (P29692 1-281): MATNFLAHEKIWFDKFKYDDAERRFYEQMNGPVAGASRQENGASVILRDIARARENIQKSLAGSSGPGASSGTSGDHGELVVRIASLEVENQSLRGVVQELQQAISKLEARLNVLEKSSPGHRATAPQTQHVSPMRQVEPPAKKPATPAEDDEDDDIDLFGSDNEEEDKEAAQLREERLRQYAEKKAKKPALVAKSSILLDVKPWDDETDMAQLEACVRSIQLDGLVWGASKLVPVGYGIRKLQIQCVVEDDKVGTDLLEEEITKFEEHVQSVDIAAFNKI

[8] = molecular target: T8, HeLa cell extract proteins (Homo sapiens, UniProt Q6YN16)
T8 construct: endogenous in cells; host or cells: HeLa cell extract
T8 sequence (Q6YN16 1-418): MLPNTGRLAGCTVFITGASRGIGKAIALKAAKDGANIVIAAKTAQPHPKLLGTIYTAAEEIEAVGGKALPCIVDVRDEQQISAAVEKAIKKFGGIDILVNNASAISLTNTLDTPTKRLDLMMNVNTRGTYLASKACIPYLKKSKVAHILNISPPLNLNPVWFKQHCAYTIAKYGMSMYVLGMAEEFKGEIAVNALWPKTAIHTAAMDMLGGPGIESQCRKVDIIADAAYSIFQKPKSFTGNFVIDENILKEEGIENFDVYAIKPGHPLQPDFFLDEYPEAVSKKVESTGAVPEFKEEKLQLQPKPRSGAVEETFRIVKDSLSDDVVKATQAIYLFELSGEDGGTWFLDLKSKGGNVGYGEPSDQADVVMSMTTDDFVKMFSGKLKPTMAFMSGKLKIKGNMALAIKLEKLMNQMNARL

[9] = HeLa, protein HSP90AB1 (HEAT SHOCK PROTEIN HSP 90-BETA.)
[10] = HeLa, protein PDIA4 (PROTEIN DISULFIDE-ISOMERASE A4 PRECURSOR.)

| Structure (SMILES) | fold changes relative to vehicle control ([1]; HeLa, protein BZW1) | fold changes relative to vehicle control ([2]; HeLa, protein HSP90AB1) | fold changes relative to vehicle control ([3]; HeLa, protein UGCGL1) | fold changes relative to vehicle control ([4]; HeLa, protein C1QBP) | fold changes relative to vehicle control ([5]; HeLa, protein PRDX1) | fold changes relative to vehicle control ([6]; protein PDIA4, HeLa) | fold changes relative to vehicle control ([7]; protein EEF1D, HeLa) | fold changes relative to vehicle control ([8]; HeLa, protein HSDL2) | fold changes relative to vehicle control ([1]; protein BZW1, HeLa) | fold changes relative to vehicle control [2, 9] [fold] | fold changes relative to vehicle control ([3]; protein UGCGL1, HeLa) | fold changes relative to vehicle control ([4]; protein C1QBP, HeLa) | fold changes relative to vehicle control ([5]; protein PRDX1, HeLa) | fold changes relative to vehicle control [6, 10] [fold] | fold changes relative to vehicle control ([8]; protein HSDL2, HeLa) | also measured |
| --- | --- | --- | --- | --- | --- | --- | --- | --- | --- | --- | --- | --- | --- | --- | --- | --- |
| Nc1nc2c(c(=O)[nH]1)N(C=O)C(CNc1ccc(C(=O)N[C@@H](CCC(=O)O)C(=O)O)cc1)CN2 (some centres unmarked) [LEU, leucovorin] | 1.01 | 1.08 | 1.09 | 0.85 | 1.01 | 0.93 | 0.99 | 0.96 | – | – | – | – | – | – | – | – |
| NCCCNc1ccc(C(=O)NC(CCC(=O)O)C(=O)O)cc1 (centres unmarked) [compound 7] | 0.98 | 0.98 | 1.05 | 0.78 | 0.87 | 0.87 | 0.93 | 1.02 | – | – | – | – | – | – | – | – |
| CCCCCCOc1cccc(Cc2cnc(N)nc2N)c1 [compound 2] | – | – | – | – | – | – | 1.8 | – | 1.52 | 2.33 | 1.22 | 1.27 | 2.05 | 2.84 | 1.23 | – |
| CCCCCCOc1ccc(Cc2cnc(N)nc2N)cc1 [compound 1] | – | – | – | – | – | – | 1.26 | – | 1.09 | 1.5 | 0.99 | 1.12 | 1.24 | 1.76 | 1.11 | – |
| Nc1nc2cccc(-c3ccccc3)c2n1Cc1ccc(Cl)c(Cl)c1 [compound 3] | – | – | – | – | – | – | 1.1 | – | 0.91 | 1.06 | 1.05 | 1 | 0.85 | 0.75 | 0.96 | – |
| NCCOCCOCC(=O)Nc1nc2ncc(CNc3ccc(C(=O)NC(CCC(=O)O)C(=O)O)cc3)nc2c(=O)[nH]1 (centres unmarked) [compound 6] | 1.21 | 1.36 | 1.01 | 0.92 | 1.1 | 1.14 | 1.09 | 1.04 | – | – | – | – | – | – | – | – |
| Nc1nc2[nH]cc(CCc3ccc(C(=O)N[C@@H](CCC(=O)O)C(=O)O)cc3)c2c(=O)[nH]1 [PTX, pemetrexed] | – | – | – | – | – | – | – | – | – | – | – | – | – | – | – | fold changes relative to vehicle control [1]: 1.09; fold changes relative to vehicle control [2]: 1.14; fold changes relative to vehicle control [3]: 1.02; fold changes relative to vehicle control [4]: 0.92; fold changes relative to vehicle control [5]: 1.05; fold changes relative to vehicle control [6]: 1.04; fold changes relative to vehicle control [7]: 1.01; fold changes relative to vehicle control [8]: 0.96 |
